In patent US8658652B2, “Antifolate combinations” (Chelsea Therapeutics, Inc., priority 2010, dated 2014):

What was measured:
Type in all cases: in vivo
[1] = Body weight gain in 17 day rat developing type II collagen arthritis test; details: vs vehicle treated disease controls
Description: (§1) Female Lewis rats (n=74) weighing 140-161 grams (mean approximate weight=148 g) on day 0 of the study were obtained from Charles River Laboratories, Inc., Wilmington, Mass. Animals were identified by a distinct number delineating group and animal number. After randomization, all cages were labeled with protocol number, group number, and animal number with appropriate color-coding.
Animals were anesthetized with Isoflurane and received subcutaneous/intradermal (SC/ID) injections with […] of Freund's Incomplete Adjuvant (Difco, Detroit, Mich.) containing 2 mg/ml bovine type II collagen (Elastin Products, Owensville, Mo.) at the base of the tail and two sites on the back on days 0 and 6. Dosing was initiated on day 0 of the study (prior to boosting procedures) and continued daily (QD at 24 hour intervals) through day 16. Animals were terminated on day 17. […]
Clinical data for ankle joint diameter were analyzed by determining the area under the curve (AUC). […] Means for each group were determined and % inhibition from arthritis controls was calculated by comparing values for treated and […] animals. Data were analyzed using a Student's t-test or Mann-Whitney U test (non-parametric). If applicable, data were analyzed again, across all groups, using a one-way analysis of variance (1-way ANOVA) or Kruskal-Wallis test (non-parametric), along with the appropriate multiple comparison post-test. […]

[2] = system: developing type II collagen arthritis in rats; assay: Ankle histopathology in 17 day rat developing type II collagen arthritis test; details: for Ankle histopathology, reduction of summed scores: vs vehicle treated disease controls
Description: as §1
(§2) Animals were anesthetized with Isoflurane and received subcutaneous/intradermal (SC/ID) injections with […] of Freund's Incomplete Adjuvant (Difco, Detroit, Mich.) containing 2 mg/ml bovine type II collagen (Elastin Products, Owensville, Mo.) at the base of the tail and two sites on the back on days 0 and 6. Dosing was initiated on day 0 of the study (prior to boosting procedures) and continued daily (QD at 24 hour intervals) through day 16. Animals were terminated on day 17. The experimental groups were as follows in Table 1, wherein “CH vehicle” means the vehicle used to deliver the compound CH-4051 without the inclusion of the active compound, and “MTX vehicle” means the vehicle used to deliver methotrexate without the inclusion of the active compound. The terms “QD” and “PO” have the standard meanings in the art—i.e., “once daily” and “by mouth”, respectively.
(§3) After final body weight measurement on day 17, animals were anesthetized for terminal serum collection (retained), and then euthanized for tissue collection. Hind paws were transected at the level of the medial and lateral malleolus, weighed, and were placed in formalin with knees for potential microscopy. Livers, spleen, and thymus were removed, trimmed, weighed, and discarded.
(§4) Preserved and decalcified (5% formic acid) ankle and knee joints were cut in half longitudinally (ankles) or in the frontal plane (knees), processed through graded alcohols and a clearing agent, infiltrated and embedded in paraffin, sectioned, and stained with Toluidine Blue (T. blue) by Bolder BioPATH, Inc. associated personnel (HistoTox Labs, Inc.). Tissues from all animals were examined microscopically by a board certified veterinary pathologist, and observations were entered into a computer-assisted data retrieval system.
(§5) Clinical data for ankle joint diameter were analyzed by determining the area under the curve (AUC). For calculation of AUC, the daily measurement of ankle joints (using a caliper) for each rat were entered into a spreadsheet, and the area between the treatment days after the onset of disease to the termination day was computed. Means for each group were determined and % inhibition from arthritis controls was calculated by comparing values for treated and […] animals. Data were analyzed using a Student's t-test or Mann-Whitney U test (non-parametric). If applicable, data were analyzed again, across all groups, using a one-way analysis of variance (1-way ANOVA) or Kruskal-Wallis test (non-parametric), along with the appropriate multiple comparison post-test. ANOVA was performed using Prism 5.0c software (GraphPad Software, Inc.). Significance for all tests was set at p<0.05. Percent inhibition was calculated using the following formula: […]. The results of the testing are described below in relation to the various, referenced figures. In all cases, n=4 for Normal Controls, and n=10 for the treatment group.

[3] = system: developing type II collagen arthritis in rats; assay: Overall effect on developing arthritis parameters, rat type II collagen arthritis; details: for Effect on arthritis parameters: alone
Description: as §1, §2, §5

[4] = system: developing type II collagen arthritis in rats; assay: Knee histopathology in 17 day rat developing type II collagen arthritis test
Description: as §1, §2, §3, §4, §5

[5] = system: developing type II collagen arthritis in rats; assay: Ankle diameter (caliper) in 17 day rat developing type II collagen arthritis test; details: for Daily ankle diameter reduced toward normal, days of significance: vs vehicle controls; for Ankle diameter AUC reduction toward normal: vs vehicle treated disease controls
Description: as §1, §2
Rats were weighed on days 0, 3, 6, and 9-17 of the study, and caliper measurements of ankles were taken every day beginning on day 9 (or day 0 of arthritis). Ankle caliper measurements were made with Digitrix II micrometer (Fowler & NSK). Baseline measurements were taken using one ankle with values rounded to one-thousandth of an inch. Measurements were confirmed as clinically normal (0.260-0.264 inches) by comparison with historical values for rats based on a range of body weights. Baseline measurements were then applied to both ankles, and these values remained with the animal so long as the ankle was clinically normal with good definition of all the ankle bones and no evidence of inflammation.
Clinical data for ankle joint diameter were analyzed by determining the area under the curve (AUC). […] Means for each group were determined and % inhibition from arthritis controls was calculated by comparing values for treated and […] animals. Data were analyzed using a Student's t-test or Mann-Whitney U test (non-parametric). If applicable, data were analyzed again, across all groups, using a one-way analysis of variance (1-way ANOVA) or Kruskal-Wallis test (non-parametric), along with the appropriate multiple comparison post-test. […] Percent inhibition was calculated using the following formula: % Change=B/A×100, wherein A is the mean normal (mean disease control), and B is the mean treated (mean disease control). […]

[6] = system: developing type II collagen arthritis in rats; assay: Knee histopathology in 17 day rat developing type II collagen arthritis test; details: 0.2 mg/kg MTX 2X/week PO (Group 6); vs vehicle controls
[7] = 5 mg/kg CH-4051 daily PO (Group 7)
[8] = 2.5 mg/kg CH-4051 alone (Group 4), FIG. 11
[9] = 5 mg/kg CH-4051 alone (Group 7), FIG. 14
[10] = 2.5 mg/kg CH-4051 alone (Group 4), FIG. 19
[11] = 0.2 mg/kg MTX 2X/week PO (Group 6)
[12] = 0.1 mg/kg methotrexate alone (Group 3), FIG. 10
[13] = 0.2 mg/kg methotrexate alone (Group 6), FIG. 13
[14] = 0.1 mg/kg methotrexate alone (Group 3), FIG. 18

## C=C(C[C@H](NC(=O)c1ccc(CCc2ccc3nc(N)nc(N)c3c2)cc1)C(=O)O)C(=O)O [CH-4051, (S)-2-{4-[2-(2,4-diamino-quinazolin-6-yl)-ethyl]-benzoylamino}-4-methylene-pentanedioic acid]
[1]; [7]
  Body weight gain increase toward normal: 84%
[2]; [8]
  Ankle cartilage damage, photomicrograph of approximate mean summed score: mild
  Ankle inflammation, photomicrograph of approximate mean summed score: marked
  Ankle pannus, photomicrograph of approximate mean summed score: mild
[2]; [9]
  Ankle cartilage damage, photomicrograph of approximate mean summed score: minimal
  Ankle inflammation, photomicrograph of approximate mean summed score: mild
  Ankle pannus, photomicrograph of approximate mean summed score: minimal
[2]; [7]
  Ankle histopathology, reduction of summed scores: 75%
[3]; 2.5 mg/kg CH-4051 (daily doses)
  Effect on developing arthritis parameters: only minimal, non-significant effects
[3]; 5 mg/kg CH-4051 per day
  Effect on arthritis parameters: good inhibition of all arthritis parameters
[4]; [10]
  Knee bone resorption, photomicrograph of highest summed score in group: bone resorption
  Knee cartilage damage, photomicrograph of highest summed score in group: moderate
  Knee inflammation, photomicrograph of highest summed score in group: severe
  Knee pannus, photomicrograph of highest summed score in group: mild
[4]; 5 mg/kg CH-4051 alone (Group 7), FIG. 22
  Knee inflammation, photomicrograph of highest summed score in group: mild
[4]; 5 mg/kg CH-4051 daily PO (Group 7), vs vehicle treated disease controls
  Knee histopathology, reduction of summed scores: 92%
[5]; [7]
  Daily ankle diameter reduced toward normal, days of significance: significant at days 10-17
  Ankle diameter AUC reduction toward normal: 81%

## CN(Cc1cnc2nc(N)nc(N)c2n1)c1ccc(C(=O)N[C@@H](CCC(=O)O)C(=O)O)cc1 [MTX, methotrexate]
[1]; [11]
  Body weight gain increase toward normal: 68%
[6]
  Knee bone resorption score reduction: 95%
  Knee cartilage damage score reduction: 91%
  Knee pannus score reduction: 91%
[2]; 0.1 mg/kg MTX—Group 6 (so in the source)
  Ankle histopathology, reduction of summed scores: 59%
[2]; [12]
  Ankle cartilage damage, photomicrograph of approximate mean summed score: mild
  Ankle inflammation, photomicrograph of approximate mean summed score: marked
  Ankle pannus, photomicrograph of approximate mean summed score: minimal
[2]; [13]
  Ankle cartilage damage, photomicrograph of approximate mean summed score: minimal
  Ankle inflammation, photomicrograph of approximate mean summed score: mild
  Ankle pannus, photomicrograph of approximate mean summed score: minimal
[3]; 0.1 mg/kg MTX (dosed 2 times per week)
  Effect on developing arthritis parameters: only minimal, non-significant effects
[3]; 0.2 mg/kg MTX twice weekly
  Effect on arthritis parameters: good inhibition of all arthritis parameters
[4]; [14]
  Knee bone resorption, photomicrograph of highest summed score in group: bone resorption
  Knee cartilage damage, photomicrograph of highest summed score in group: mild
  Knee inflammation, photomicrograph of highest summed score in group: severe
  Knee pannus, photomicrograph of highest summed score in group: mild
[4]; 0.2 mg/kg methotrexate alone (Group 6), FIG. 21
  Knee inflammation, photomicrograph of highest summed score in group: mild
[5]; 0.1 mg/kg MTX 2X/week PO (Group 3)
  Daily ankle diameter reduced toward normal, days of significance: significant at day 11
[5]; [11]
  Ankle diameter AUC reduction toward normal: 72%
